In BindingDB's records for doi:10.1016/s0960-894x(98)00213-3 (Centre De Recherche Pierre Fabre, 1999):

How the values were obtained:
[1] = In vitro inhibition of dog liver squalene epoxidase in HepG2 cells
[2] = In vitro inhibition of pig liver squalene epoxidase in HepG2 cells

IC50 [1]: 80 nM
IC50 [2]: 50 nM
Compound: CCN(C/C=C/C#CC(C)(C)C)Cc1cccc(OCCN(C)S(=O)(=O)c2cccs2)c1 [Thiophene-2-sulfonic acid [2-(3-{[((E)-6,6-dimethyl-hept-2-en-4-ynyl)-ethyl-amino]-methyl}-phenoxy)-ethyl]-methyl-amide]
